Data from BindingDB's records for patent US20250163061 (Bala Therapeutics, 2025).

Biological target: T1, Menin (Homo sapiens, UniProt O00255)
T1 sequence (O00255 whole entry): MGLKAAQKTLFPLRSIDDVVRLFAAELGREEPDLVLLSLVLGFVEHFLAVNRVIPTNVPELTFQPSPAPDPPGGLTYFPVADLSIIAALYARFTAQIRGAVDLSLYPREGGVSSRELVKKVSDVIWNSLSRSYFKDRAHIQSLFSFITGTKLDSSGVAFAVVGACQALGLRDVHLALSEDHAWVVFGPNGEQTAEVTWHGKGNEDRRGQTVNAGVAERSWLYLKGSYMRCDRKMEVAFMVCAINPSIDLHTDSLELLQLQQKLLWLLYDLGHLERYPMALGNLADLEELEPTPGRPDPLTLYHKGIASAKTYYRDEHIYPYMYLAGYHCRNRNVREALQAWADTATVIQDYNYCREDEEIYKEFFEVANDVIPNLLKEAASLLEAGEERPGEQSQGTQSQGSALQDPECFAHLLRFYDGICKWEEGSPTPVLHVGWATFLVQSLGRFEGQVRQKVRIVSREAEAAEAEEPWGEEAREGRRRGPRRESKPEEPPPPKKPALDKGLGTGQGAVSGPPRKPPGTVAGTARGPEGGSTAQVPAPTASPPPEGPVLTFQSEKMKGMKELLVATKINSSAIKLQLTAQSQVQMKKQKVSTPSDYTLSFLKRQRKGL
Assay: Primary Assay Used to Determine Potency of MEN1 Activity Inhibition
Description: Compound activity was determined using recombinant MEN1 protein (Creativebiomart, Cat #MEN1-35H) and a custom fluorescein-labeled MLL4-43 peptide (Eton Bioscience Inc.). Interaction between MEN1 and MLL4-43 in the presence of compounds was determined by fluorescence polarization assay using a Microplate Reader ClarioStar Plus. The reaction was carried out in assay buffer (50 mM TRIS-HCl pH 7.4-7.6, 50 mM NaCl, 1 mM DTT, 0.1 mg/ml BSA). The compounds were dispensed on a 384 well Diamond Well Plate (Axigen, Cat #P-384-120SQ-C-S) using the Biomek FX liquid handling system at 100× solutions of compounds in DMSO. 2×MEN1 mix (final concentration of MEN1 10 nM) was prepared in Assay buffer and 10 μl of mixture per well was added into 384 w white Reaction plate with NBS (Corning, Cat #4513). 10 μl of Assay buffer w/o MEN1 was used for negative control. Plates were centrifuged for 1 min at 100 g. Next step the Compounds were added to Reaction plate using Biomek station via following steps: 3 μl of 100× compounds (in DMSO) were mixed thoroughly with 27 μl Assay Buffer, then 2 μl of this mixture was added to Reaction plate with 10 μl of MEN1 mix. Plates were centrifuged for 1 min at 100 g and incubated for 20 min at room temperature. Next 8 μL of MLL4-43 peptide per well was added to final concentration of MLL 0.5 nM. Plates were incubated for 1 hour at room temperature. Then fluorescence polarization was measured using Microplate Reader.

Compound | EC50 [nM]
CCCCS(=O)(=O)N1CCN(C(C)Cn2c(C#N)cc3c(C)c(CN4CCC5(CC4)CN(c4ncnc6ccc(CC(F)(F)F)cc46)C5)ccc32)CC1 (configuration not stated) [US20250163061, Compound 17] | < 75
Cc1c(CN2CCC3(CC2)CN(c2ncnc4ccc(CC(F)(F)F)cc24)C3)ccc2c1cc(C#N)n2CC(C)N1CCCN(S(C)(=O)=O)CC1 (configuration not stated) [US20250163061, Compound 29] | < 75
Cc1c(CN2CCC3(CC2)CN(c2ncnc4ccc(C(F)(F)C(F)(F)F)cc24)C3)ccc2c1cc(C#N)n2C[C@H](C)N1CCN(S(C)(=O)=O)CC1 [US20250163061, Compound 75] | < 75
Cc1c(CN2CCC3(CC2)CN(c2ncnc4ccc(CC(F)(F)F)cc24)C3)ccc2c1cc(C#N)n2C[C@H]1CNC(=O)CO1 [US20250163061, Compound 101] | < 75
CS(=O)(=O)N1CCN(CCn2c(C#N)cc3cc(CN4CCC5(CC4)CN(c4ncnc6ccc(CC(F)(F)F)cc46)C5)ccc32)CC1 [US20250163061, Compound 91] | < 75
CC(Cn1c(C#N)cc2c(F)c(CN3CCC4(CC3)CN(c3ncnc5ccc(CC(F)(F)F)cc35)C4)ccc21)N1CCN(S(C)(=O)=O)CC1 (configuration not stated) [US20250163061, Compound 78] | 75 to 500
CCN1CC(Cn2c(C#N)cc3c(C)c(CN4CCC5(CC4)CN(c4ncnc6ccc(CC(F)(F)F)cc46)C5)ccc32)OCC1=O (configuration not stated) [US20250163061, Compound 104] | < 75
Cc1c(CN2CCC3(CC2)CN(c2ncnc4ccc(CC(F)(F)F)cc24)C3)ccc2c1cc(C#N)n2CC1CNS(=O)(=O)CO1 (configuration not stated) [US20250163061, Compound 21] | < 75
Cc1c(CN2CCC3(CC2)CN(c2ncnc4ncc(CC(F)(F)F)cc24)C3)ccc2c1cc(C#N)n2CC(C)N1CCN(S(C)(=O)=O)CC1 (configuration not stated) [US20250163061, Compound 89] | < 75
Cc1c(CN2CCC3(CC2)CN(c2ncnc4ccc(CC(F)(F)F)cc24)C3)ccc2c1cc(C#N)n2CCCCN1CCN(S(C)(=O)=O)CC1 [US20250163061, Compound 44] | < 75
C=CC(=O)N1CCN(CCn2c(C#N)cc3cc(CN4CCC5(CC4)CN(c4ncnc6ccc(CC(F)(F)F)cc46)C5)ccc32)CC1 [US20250163061, Compound 86] | 75 to 500
CNc1nc(N2CC3(CCN(Cc4ccc5c(cc(C#N)n5C[C@@H]5CNC(=O)CO5)c4C)CC3)C2)c2cc(CC(F)(F)F)ccc2n1 [US20250163061, Compound 58] | < 75
Cc1c(CN2CCC3(CC2)CN(c2ncnc4ccc(CC(F)(F)F)cc24)C3)ccc2c1cc(C#N)n2CC12CC(NS(N)(=O)=O)(C1)C2 [US20250163061, Compound 61] | < 75
Cc1c(CN2CCC3(CC2)CN(c2ncnc4ccc(CC(F)(F)F)cc24)C3)ccc2c1cc(C#N)n2CCN1CCNC1=O | < 75
Cc1c(CN2CCC3(CC2)CN(c2ncnc4ccc(CC(F)(F)F)cc24)C3)ccc2c1cc(C#N)n2CC1CN(C)C(=O)CO1 (configuration not stated) [US20250163061, Compound 15] | < 75
Cc1c(CN2CCC3(CC2)CN(c2ncnc4ccc(CC(F)(F)F)cc24)C3)ccc2c1cc(C#N)n2CC1CNC(=O)C(C)O1 (configuration not stated) [US20250163061, Compound 7] | < 75
Cc1c(CN2CCC3(CC2)CN(c2ncnc4ccc(CC(F)(F)F)cc24)C3)ccc2c1cc(C#N)n2C[C@H](C)N1CCN(S(C)(=O)=O)[C@@H](C)C1 [US20250163061, Compound 28] | < 75
Cc1c(CN2CCC3(CC2)CN(c2ncnc4ccc(CC(F)(F)F)nc24)C3)ccc2c1cc(C#N)n2CC(C)N1CCN(S(C)(=O)=O)CC1 (configuration not stated) [US20250163061, Compound 67] | < 75
Cc1c(CN2CCC3(CC2)CN(c2ncnc4ccc(CC(F)(F)F)cc24)C3)ccc2c1cc(C#N)n2CC1CNC(=O)NC1 [US20250163061, Compound 4] | < 75
Cc1c(CN2CCC3(CC2)CN(c2ncnc4ccc(CC(F)(F)F)c(F)c24)C3)ccc2c1cc(C#N)n2C[C@H](C)N1CCN(S(C)(=O)=O)CC1 [US20250163061, Compound 57] | < 75
Cc1c(CN2CCC3(CC2)CN(c2ncnc4ccc(CC(F)(F)F)cc24)C3)ccc2c1cc(C#N)n2CC12CC(NC=O)(C1)C2 [US20250163061, Compound 95] | < 75
Cc1c(CN2CCC3(CC2)CN(c2ncnc4ccc(CC(F)(F)F)cc24)C3)ccc2c1cc(C#N)n2CC(C)N1CCN(S(C)(=O)=O)CC1 (configuration not stated) [US20250163061, Compound 71] | < 75
Cc1c(CN2CCC3(CC2)CN(c2ncnc4ccc(CC(F)(F)F)cc24)C3)ccc2c1cc(C#N)n2CC1CCC(=O)N1 (configuration not stated) [US20250163061, Compound 52] | < 75
Cc1c(CN2CCC3(CC2)CN(c2ncnc4ccc(CC(F)(F)F)cc24)C3)ccc2c1cc(C#N)n2[C@@H](C)CN1CCN(S(C)(=O)=O)CC1 [US20250163061, Compound 24] | < 75
Cc1c(CN2CCC3(CC2)CN(c2ncnc4ccc(CC(F)(F)F)cc24)C3)ccc2c1cc(C#N)n2CC1CCNC(=O)C1 (configuration not stated) [US20250163061, Compound 22] | < 75
N#Cc1cc2cc(CN3CCC4(CC3)CN(c3ncnc5ccc(CC(F)(F)F)cc35)C4)ccc2[nH]1 | < 75
Cc1c(CN2CCC3(CC2)CN(c2ncnc4cnc(CC(F)(F)F)cc24)C3)ccc2c1cc(C#N)n2CC(C)N1CCN(S(C)(=O)=O)CC1 (configuration not stated) [US20250163061, Compound 45] | < 75
Cc1c(CN2CCC3(CC2)CN(c2ncnc4ccc(CC(F)(F)F)cc24)C3)ccc2c1cc(C#N)n2CC1CCNC(=O)CO1 (configuration not stated) [US20250163061, Compound 2] | < 75

Results, then the compound that gave them:

EC50 [nM] | Compound
< 75 | Cc1c(CN2CCC3(CC2)CN(c2ncnc4ccc(CC(F)(F)F)cc24)C3)ccc2c1cc(C#N)n2C[C@H]1CC[C@H](NS(C)(=O)=O)CC1 [US20250163061, Compound 40]
< 75 | Cc1c(CN2CCC3(CC2)CN(c2ncnc4ccc(CC(F)(F)F)cc24)C3)ccc2c1cc(C#N)n2C(C)CCN1CCN(S(C)(=O)=O)CC1 (configuration not stated) [US20250163061, Compound 13]
< 75 | Cc1c(CN2CCC3(CC2)CN(c2ncnc4ccc(CC(F)(F)F)cc24)C3)ccc2c1cc(C#N)n2CC12CC(N3CC(=O)NS3(=O)=O)(C1)C2 [US20250163061, Compound 62]
< 75 | C=CC(=O)N1CCN(CCCCn2c(C#N)cc3c(C)c(CN4CCC5(CC4)CN(c4ncnc6ccc(CC(F)(F)F)cc46)C5)ccc32)CC1 [US20250163061, Compound 65]
> 5000 | Cc1c(CN2CCC3(CC2)CN(c2nncc4ccc(CC(F)(F)F)cc24)C3)ccc2c1cc(C#N)n2CC(C)N1CCN(S(C)(=O)=O)CC1 (configuration not stated) [US20250163061, Compound 79]
< 75 | Cc1c(CN2CCC3(CC2)CN(c2ncnc4ccc(CC(F)(F)F)cc24)C3)ccc2c1cc(C#N)n2[C@H](C)CN1CCN(S(C)(=O)=O)CC1 [US20250163061, Compound 23]
< 75 | Cc1c(CN2CCC3(CC2)CN(c2ncnc4ccc(CC(F)(F)F)cc24)C3)ccc2c1cc(C#N)n2CC1CNC(=O)CCO1 (configuration not stated) [US20250163061, Compound 87]
< 75 | Cc1c(CN2CCC3(CC2)CN(c2ncnc4ccc(CC(F)(F)F)cc24)C3)ccc2c1cc(C#N)n2CC(C)N1CCN(S(=O)(=O)C(C)C)CC1 (configuration not stated) [US20250163061, Compound 64]
< 75 | Cc1c(CN2CCC3(CC2)CN(c2ncnc4ccc(CC(F)(F)F)cc24)C3)ccc2c1cc(C#N)n2Cc1ccc(=O)[nH]c1 [US20250163061, Compound 14]
< 75 | Cc1c(CN2CCC3(CC2)CN(c2ncnc4ccc(CC(F)(F)F)cc24)C3)ccc2c1cc(C#N)n2C[C@@H](C)N1CCN(S(C)(=O)=O)[C@@H](C)C1 [US20250163061, Compound 27]
< 75 | Cc1c(CN2CCC3(CC2)CN(c2ncnc4ccc(CC(F)(F)F)cc24)C3)ccc2[nH]c(C#N)cc12 [US20250163061, Compound 68]
< 75 | Cc1c(CN2CCC3(CC2)CN(c2ncnc4ncc(CC(F)(F)F)nc24)C3)ccc2c1cc(C#N)n2CC(C)N1CCN(S(C)(=O)=O)CC1 (configuration not stated) [US20250163061, Compound 42]
< 75 | CCCCS(=O)(=O)N1CCCN(C(C)Cn2c(C#N)cc3c(C)c(CN4CCC5(CC4)CN(c4ncnc6ccc(CC(F)(F)F)cc46)C5)ccc32)CC1 (configuration not stated) [US20250163061, Compound 73]
< 75 | Cc1c(CN2CCC3(CC2)CN(c2ncnc4ccc(CC(F)(F)F)cc24)C3)ccc2c1cc(C#N)n2CCN1CCOCC1 [US20250163061, Compound 97]
